In one assay the target is T1, E-selectin (Homo sapiens, UniProt P16581).
T1 sequence (P16581 whole entry): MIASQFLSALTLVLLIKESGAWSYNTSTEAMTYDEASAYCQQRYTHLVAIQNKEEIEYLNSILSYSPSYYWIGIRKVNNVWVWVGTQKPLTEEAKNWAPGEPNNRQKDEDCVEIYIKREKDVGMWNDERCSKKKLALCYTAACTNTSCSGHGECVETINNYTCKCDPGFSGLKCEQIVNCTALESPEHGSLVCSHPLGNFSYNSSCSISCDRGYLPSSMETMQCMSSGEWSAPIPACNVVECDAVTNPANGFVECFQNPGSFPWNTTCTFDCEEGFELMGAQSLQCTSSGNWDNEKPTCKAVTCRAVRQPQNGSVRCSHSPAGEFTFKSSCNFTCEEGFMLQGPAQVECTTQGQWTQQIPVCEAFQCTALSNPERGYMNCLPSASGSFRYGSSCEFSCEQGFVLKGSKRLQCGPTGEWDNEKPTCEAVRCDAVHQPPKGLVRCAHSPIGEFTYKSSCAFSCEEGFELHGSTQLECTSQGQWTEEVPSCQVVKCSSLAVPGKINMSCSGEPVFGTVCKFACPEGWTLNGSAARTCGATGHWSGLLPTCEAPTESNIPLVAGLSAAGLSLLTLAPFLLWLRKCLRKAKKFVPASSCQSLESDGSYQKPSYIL
The assay can be described thus: Concentration required to inhibit the interaction of Selectin E and HL-60 cells. The format is cell-based.

In the next assay the target is T2, P-selectin (Homo sapiens, UniProt P16109).
T2 sequence (P16109 whole entry): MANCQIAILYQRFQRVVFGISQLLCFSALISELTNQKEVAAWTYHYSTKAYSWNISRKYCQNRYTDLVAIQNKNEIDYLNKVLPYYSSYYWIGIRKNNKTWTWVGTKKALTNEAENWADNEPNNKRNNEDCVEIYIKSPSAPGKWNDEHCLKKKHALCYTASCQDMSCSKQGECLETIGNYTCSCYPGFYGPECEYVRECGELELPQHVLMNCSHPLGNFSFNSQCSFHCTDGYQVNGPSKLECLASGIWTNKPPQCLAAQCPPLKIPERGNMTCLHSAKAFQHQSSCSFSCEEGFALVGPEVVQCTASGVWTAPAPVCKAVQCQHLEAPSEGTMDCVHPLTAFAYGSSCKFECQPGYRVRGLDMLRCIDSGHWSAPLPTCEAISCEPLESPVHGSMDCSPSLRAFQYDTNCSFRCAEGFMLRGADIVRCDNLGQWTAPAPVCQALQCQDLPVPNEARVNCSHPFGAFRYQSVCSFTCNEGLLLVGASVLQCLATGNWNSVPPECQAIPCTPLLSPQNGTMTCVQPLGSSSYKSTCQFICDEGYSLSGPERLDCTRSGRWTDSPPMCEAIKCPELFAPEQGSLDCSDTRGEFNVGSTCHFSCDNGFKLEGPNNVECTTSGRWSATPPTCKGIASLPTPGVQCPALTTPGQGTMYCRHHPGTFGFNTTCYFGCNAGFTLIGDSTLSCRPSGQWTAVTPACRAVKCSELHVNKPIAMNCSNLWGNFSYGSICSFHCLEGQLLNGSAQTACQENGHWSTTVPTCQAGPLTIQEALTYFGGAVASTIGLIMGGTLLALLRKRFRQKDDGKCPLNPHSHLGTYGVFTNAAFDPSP
The assay can be described thus: Concentration required to inhibit the interaction of Selectin P and HL-60 cells. The format is cell-based.

IC50 data for 3 compounds are collected here from ChEMBL document CHEMBL1134244, “Design and synthesis of a new sialyl Lewis X mimetic: how selective are the selectin receptors?” (Bioorg Med Chem Lett, 2001).

As for `CC(=O)N[C@H]1[C@H]([C@H](O)[C@H](O)CO)O[C@@](O[C@H]2[C@@H](O)[C@@H](CO)O[C@@H](O[C@@H]([C@H](O[C@@H]3O[C@@H](C)[C@@H](O)[C@@H](O)[C@@H]3O)[C@H](C=O)NC(C)=O)[C@H](O)CO)[C@@H]2O)(C(=O)O)C[C@@H]1O` (single isomer, unassigned; enantiomer A) [SIALYL LEWIS X], the IC50 on E-selectin turned out to be 7 mM; against P-selectin it was 5 mM.

As for `CC(=O)N[C@H]1[C@H]([C@H](O)[C@H](O)CO)O[C@@](O[C@H]2[C@@H](O)[C@@H](CO)O[C@@H](O[C@@H]([C@H](O[C@@H]3O[C@@H](C)[C@@H](O)[C@@H](O)[C@@H]3O)[C@H](C=O)NC(C)=O)[C@H](O)CO)[C@@H]2O)(C(=O)O)C[C@@H]1O` (single isomer, unassigned; enantiomer B) [SIALYL LEWIS X], the IC50 against E-selectin is 5 mM; on P-selectin it was 4.5 mM.

Consider `CC(=O)N[C@H]1[C@H]([C@H](O)[C@H](O)CO)O[C@@](O[C@H]2[C@@H](O)[C@@H](CO)O[C@@H](O[C@@H]([C@H](O[C@@H]3O[C@@H](C)[C@@H](O)[C@@H](O)[C@@H]3O)[C@H](C=O)NC(C)=O)[C@H](O)CO)[C@@H]2O)(C(=O)O)C[C@@H]1O` [SIALYL LEWIS X], for which the IC50 on E-selectin worked out at 5 mM; against P-selectin, 5.5 mM.

Broadly, the IC50 is the midpoint of a concentration-inhibition curve. Lower therefore signals inhibition by little substance.
